Results on one substance are retold here after patent publication US10617140B2, “Iron-fortified food composition” (NESTEC S.A., priority 2015, dated 2020).

The data set in a line: Fortification of water: iron content on storage, ICP-AES (Example 7). In kind it is physicochemical. As to the method: Processed water enriched with 20-30 ppm of sodium and potassium (600 mL) was iron fortified by the addition of different iron ingredients as reported in Table 10. The amounts were chosen to provide approximately 2.1 mg of iron per litre of water. The water was stored in an oven at 40° C. for 18 weeks. The iron content was measured for each sample through ICP-AES.

Ferrous sulfate: the “Iron content, Week 1” value (processed water fortified at approx. 2.1 mg iron per litre, stored at 40° C., ICP-AES, week 1) is given as 0 (Precipitate). The “Iron content, Week 18” value (processed water fortified at approx. 2.1 mg iron per litre, stored at 40° C., ICP-AES, week 18) was 0 (Precipitate). For the same substance, where the note is “processed water stored at 40° C., up to 18 weeks”, the “Behaviour in fortified water (precipitation / remaining in solution)” value is on record as “precipitates almost instantaneously”.
